The test system of assay [1] is SW480 and RKO colon cancer cell lines. Particulars: estimated from the literature, dose used with ISC-4 in FIG. 2, cited from earlier work.
The subject of the next assay is SW480. Nature of the assay: Cell viability assay of ISC-4 combined with approved antitumor agents, SW480. The format is cell-based, human. The arrangement: key: uncooperative (−); cooperative (+); synergistic (*); ambiguous (?). The note with it: ISC-4 (1, 2, or 4 μM) plus therapy at putative EC12.5, EC25, EC50; compared to monoagent activity. The method, then: (§1) Cell lines are obtained from ATCC and cultured in ATCC-recommended media in a humidified incubator at 5% CO2 and 37° C. For cell viability assays, cells are seeded into 96-well black-walled plates at a concentration of 1×10^5 cells per mL in fresh media and in a volume of 100 μL per well. Cells are allowed to adhere overnight and are treated the next day as indicated. At endpoint, CellTiter-Glo (Promega) assays are performed according to the manufacturer's protocol, and the bioluminescent readout is recorded on an IVIS imaging system (Xenogen).
(§2) The SW480 and RKO human colon cancer cell lines are used for initial profiling based on their heterogeneous oncogenic genetic alterations.
(§3) Combinatorial activities of ISC-4 and each listed drug are compared to monoagent activities of each drug alone by cell viability assays and determined to be uncooperative (−), cooperative (+), synergistic (*), or ambiguous (?).

The subject of another assay is RKO. As to the kind of experiment: Cell viability assay of ISC-4 combined with approved antitumor agents, RKO. Particulars: ISC-4 (1, 2, or 4 μM) plus therapy at putative EC12.5, EC25, EC50; compared to monoagent activity. Also on record: key: uncooperative (−); cooperative (+); synergistic (*); ambiguous (?). The format is cell-based, human. The method, then:
as §1, §2, §3

Where two headings read alike, the source gives them in different places.

Take `O=c1[nH]cc(F)c(=O)[nH]1` [5-FU, 5-fluorouracil]: in assay [1], the EC12.5 is 4.5 µM and the EC25 is 9000 nM. Moreover, the EC50 in assay [1] (read-out: EC50) was 18 µM. Moreover, in the assay with SW480, the “Combinatorial effect of ISC-4 with the listed therapy, SW480” value (from here on “Combinatorial effect … SW480”) is “−”. The “Combinatorial effect of ISC-4 with the listed therapy, RKO” value (shortened to “Combinatorial effect … RKO”) in the assay on RKO was “−”.
As for `CC(C)C[C@H](NC(=O)[C@H](Cc1ccccc1)NC(=O)c1cnccn1)B(O)O` [Bortezomib], the “Combinatorial effect … SW480” value in the assay on SW480 is reported as “?”. Moreover, the “Combinatorial effect … RKO” value in the assay with RKO is recorded as “+”.
Take `N.N.[Cl][Pt][Cl]` [Cisplatin]: in assay [1], the EC12.5 was 1.125 µM and the EC25 was 2250 nM. Also, the EC50 in assay [1] (read-out: EC50) is 4.5 µM. In addition, in the assay with SW480, the “Combinatorial effect … SW480” value is “+”. For the same molecule, the “Combinatorial effect … RKO” value in the assay with RKO is recorded as “−”.
Take `Nc1nc(Cl)nc2c1ncn2[C@H]1C[C@H](O)[C@@H](CO)O1` [Cladribine]: in assay [1], the EC12.5 was 0.025 µM and the concentration for an effect of 25% (EC25) is 50 nM. In addition, the EC50 in assay [1] (read-out: EC50) is 0.1 µM. For the same molecule, in the assay with SW480, the “Combinatorial effect … SW480” value is “−”. In addition, the “Combinatorial effect … RKO” value in the assay with RKO was “−”.
In the case of `CC(=O)O[C@@]12CO[C@@H]1C[C@H](O)[C@@]1(C)C(=O)[C@H](O)C3=C(C)[C@@H](OC(=O)[C@H](O)[C@@H](NC(=O)OC(C)(C)C)c4ccccc4)C[C@@](O)([C@@H](OC(=O)c4ccccc4)[C@H]21)C3(C)C` [Docetaxel], in assay [1], the EC12.5 was 2.5 µM and the EC25 is 5000 nM. Moreover, in assay [1] (read-out: EC50), the EC50 is 10 µM. The “Combinatorial effect … SW480” value with SW480 is reported as “−”. The “Combinatorial effect … RKO” value in the assay on RKO was “−”.
As for `COc1cccc2c1C(=O)c1c(O)c3c(c(O)c1C2=O)C[C@@](O)(C(=O)CO)C[C@@H]3O[C@H]1C[C@H](N)[C@H](O)[C@H](C)O1` [Doxorubicin], in assay [1], the EC12.5 was 16.25 µM and the EC25 was 32500 nM. In assay [1] (read-out: EC50), the EC50 is 65 µM. Besides, the “Combinatorial effect … SW480” value in the assay on SW480 is listed as “−”. Moreover, the “Combinatorial effect … RKO” value in the assay with RKO is on record as “?”.
For the molecule `COc1cc([C@@H]2c3cc4c(cc3[C@@H](O[C@@H]3O[C@@H]5CO[C@@H](C)O[C@H]5[C@H](O)[C@H]3O)[C@H]3COC(=O)[C@H]23)OCO4)cc(OC)c1O` [Etoposide], in assay [1], the EC12.5 is 1.25 µM and the EC25 was 2500 nM. Further, the EC50 in assay [1] (read-out: EC50) is 5 µM. Moreover, the “Combinatorial effect … SW480” value in the assay with SW480 was “−”. Further, the “Combinatorial effect … RKO” value in the assay on RKO was “−”.
`COc1cc2ncnc(Nc3ccc(F)c(Cl)c3)c2cc1OCCCN1CCOCC1` [Gefitinib]: in assay [1], the EC12.5 was 5.75 µM and the EC25 was 11500 nM. Besides, the “Combinatorial effect … SW480” value in the assay with SW480 is on record as “+”. The “Combinatorial effect … RKO” value in the assay with RKO was “+”.
For the molecule `Nc1ccn([C@@H]2O[C@H](CO)[C@@H](O)C2(F)F)c(=O)n1` [Gemcitabine], in assay [1], the EC12.5 was 0.5 µM and the EC25 was 1000 nM. Besides, in assay [1] (read-out: EC50), the EC50 was 2 µM. Besides, the “Combinatorial effect … SW480” value with SW480 was “−”. In addition, the “Combinatorial effect … RKO” value with RKO is “+”.
Regarding `CCc1c2c(nc3ccc(OC(=O)N4CCC(N5CCCCC5)CC4)cc13)-c1cc3c(c(=O)n1C2)COC(=O)[C@]3(O)CC` [Irinotecan], in assay [1], the EC12.5 is 3.38 µM and the EC25 was 6750 nM. In addition, in assay [1] (read-out: EC50), the EC50 was 13 µM. Moreover, the “Combinatorial effect … SW480” value with SW480 is “−”. For the same molecule, in the assay on RKO, the “Combinatorial effect … RKO” value is “−”.
Turning to `CS(=O)(=O)CCNCc1ccc(-c2ccc3ncnc(Nc4ccc(OCc5cccc(F)c5)c(Cl)c4)c3c2)o1` [Lapatinib], in assay [1], the EC12.5 was 1.75 µM and the EC25 is 3500 nM. For the same molecule, the EC50 in assay [1] (read-out: EC50) was 7 µM. In addition, the “Combinatorial effect … SW480” value in the assay with SW480 is “−”. Further, the “Combinatorial effect … RKO” value in the assay on RKO is recorded as “−”.
Regarding `O=C1[O][Pt]2([NH][C@@H]3CCCC[C@H]3[NH]2)[O]C1=O` [Oxaliplatin], in assay [1], the EC12.5 was 0.075 µM and the EC25 is 150 nM. Also, the EC50 in assay [1] (read-out: EC50) was 0.3 µM. Moreover, the “Combinatorial effect … SW480” value with SW480 was “−”. In the assay with RKO, the “Combinatorial effect … RKO” value was “−”.
As for `CC(=O)O[C@H]1C(=O)[C@@]2(C)[C@H]([C@H](OC(=O)c3ccccc3)[C@]3(O)C[C@H](OC(=O)[C@H](O)[C@@H](NC(=O)c4ccccc4)c4ccccc4)C(C)=C1C3(C)C)[C@]1(OC(C)=O)CO[C@@H]1C[C@@H]2O` [Paclitaxel], in assay [1], the EC12.5 was 0.0025 µM and the EC25 is reported as 5 nM. The concentration for a half-maximal effect (EC50) in assay [1] (read-out: EC50) is 0.01 µM. Moreover, in the assay on SW480, the “Combinatorial effect … SW480” value is on record as “−”. Also, the “Combinatorial effect … RKO” value in the assay with RKO is “−”.
As for `Nc1nc2[nH]cc(CCc3ccc(C(=O)N[C@@H](CCC(=O)O)C(=O)O)cc3)c2c(=O)[nH]1` [Pemetrexed], in assay [1], the EC12.5 is 0.25 µg/mL, the EC25 is 0.5 µg/mL and the EC50 is 1 µg/mL. Further, the “Combinatorial effect … SW480” value in the assay with SW480 is reported as “−”. Further, the “Combinatorial effect … RKO” value with RKO is “−”.
Turning to `CNC(=O)c1cc(Oc2ccc(NC(=O)Nc3ccc(Cl)c(C(F)(F)F)c3)cc2)ccn1` [Sorafenib], in assay [1], the EC12.5 was 8 µM and the EC25 is 16000 nM. In addition, in assay [1] (read-out: EC50), the EC50 was 32 µM. For the same molecule, the “Combinatorial effect … SW480” value with SW480 is reported as “+”. In the assay on RKO, the “Combinatorial effect … RKO” value is reported as “+”.
On to `CC[C@]1(O)C[C@H]2CN(CCc3c([nH]c4ccccc34)[C@@](C(=O)OC)(c3cc4c(cc3OC)N(C=O)[C@H]3[C@@](O)(C(=O)OC)[C@H](OC(C)=O)[C@]5(CC)C=CCN6CC[C@]43[C@@H]65)C2)C1` [Vincristine], for which, in assay [1], the EC12.5 was 3.5e-05 µM and the EC25 result is “.07 nM”. Besides, in assay [1] (read-out: EC50), the EC50 was 0.00014 µM. The “Combinatorial effect … SW480” value in the assay with SW480 is listed as “−”. The “Combinatorial effect … RKO” value in the assay with RKO is given as “−”.
For Panitumumab, in assay [1], the EC12.5 was 0.75 µg/mL, the EC25 is 1.5 µg/mL and the EC50 was 3 µg/mL. The “Combinatorial effect … SW480” value with SW480 is recorded as “−”. Also, the “Combinatorial effect … RKO” value in the assay with RKO was “−”.

These data come from US20150328310A1, “METHODS AND COMPOSITIONS RELATING TO TREATMENT OF CANCER” (THE PENN STATE RESEARCH FOUNDATION, priority 2012, published 2015).
